# In patent US20050003998A1, “Therapeutic use of selective LXR modulators” (priority 2002, published 2005):
# “Also recorded” adds a separate entry of the source.
# Tests used:
# phospholipase A2 (PLA2) = settings: cited from earlier work; for PLA2 enzymatic activity / PLA2 mRNA: rat smooth muscle cells
# irritant dermatitis = settings: phorbol 12-myristate-13-acetate on ears of CD1 mice; cited from earlier work
# [1] = tested on: rat pheochromocytoma cells; settings: cited from earlier work
# [2] = tested on: mouse adult neural stem cells derived from the lateral ventricle wall; experiment: Intracellular ATP assay on adult mouse neurosphere cultures; format: cell-based; settings: for intracellular ATP levels, and hence cell number (adult mouse NSC proliferation or survival in vitro): 3 days, non-adherent conditions, values normalized to the vehicle (100%)
# Protocol: The anterior lateral wall of the lateral ventricle of 5-6 week old mice was enzymatically dissociated in 0.8mg/ml hyaluronidase and 0.5 mg/ml trypsin in DMEM containing 4.5 mg/ml glucose and 80units/ml DNase at 37° C. for 20 min. The cells were gently triturated and mixed with three volumes of Neurosphere medium (DMEM/F12, B27 supplement, 12.5 mM HEPES pH7.4) containing 20 ng/ml EGF (unless otherwise stated), 100units/ml penicillin and 100 μg/ml streptomycin. After passing through a 70 μm strainer, the cells were pelleted at 160×g for 5 min. The supernatant was subsequently removed and the cells resuspended in Neurosphere medium supplemented as above, plated out in culture dishes and incubated at 37° C. Neurospheres were ready to be split approximately 7 days after plating.
# To split neurosphere cultures, neurospheres were collected by centrifugation at 160×g for 5 min. The neurospheres were resuspended in 0.5 ml Trypsin/EDTA in HBSS (1×), incubated at 37° C. for 2 min and triturated gently to aid dissociation. Following a further 3 min incubation at 37° C. and trituration, 3 volumes of ice cold NSPH-media-EGF were added to stop further trypsin activity. The cells were pelleted at 220×g for 4 min, resuspended in fresh Neurosphere medium supplemented with 20 ng/ml EGF and 1 nM bFGF plated out and incubated at 37° C.
# Mouse neurospheres, cultured as described above, from passage 2, were seeded in DMEM/F12 supplemented with B27 into a 96-well plate as single cells (10000 cells/well) to the substances to be measured were added at the concentrations indicated. After 3 days incubation, intracellular ATP was measured using the ATP-SL kit from BioThema, Sweden, according to the manufacturer's instructions. The LXR agonists: 5-Cholesten-24(s), 25-epoxy-3b-ol were purchased from Steraloids (no C6640-000): TO-901317 were purchased from Sigma-Aldrich (no T2320). The RXR agonist cis-4,7,10,13,16,19-Docosahexaenoic acid (DHA) were purchased from Sigma-Aldrich (no 43938). […]
# cells in the LVW [3] = experiment: Oral administration of TO-901317 in chow, BrdU incorporation in the lateral ventricle wall; format: in vivo, C57BL/6J male mice; settings: 4.3 and 43 mg/kg/day, mouse
# Protocol: (§1) C57BL/6J male mice were housed under controlled temperature and humidity and had free access to water and chow. 40 mice were divided into 5 groups (n=8). Group 1 received chow mixed with 0.025% T0901317 (Sigma-Aldrich) ad libitum for 10 days (dose previously show to be effective for brain activity of the compound). On day 7 and 8 the animals received a single injection of 5-bromodeoxyuridine, 100 mg/kg i.p., respectively and were sacrificed on day 10 by means of cervical dislocation.
# Group 2 received identical treatment except that the chow in this case contained 0.0025% T0901317. […] No correlation between weight gain, food intake or BrdU incorporation could be detected. […]
# (§2) Brains were cut into 14-μm coronal sections using a cryostat-microtome. […] After 1 hour of washing, the BrdU-antibody complex was detected using 0.05% diaminobenzidine with 0.01% H2O2, and counterstained with Hematoxylin. […]
# (§3) For all BrdU labeling experiments, three to six sections per animal were analyzed. BrdU-positive cells were counted along 2×250 micrometer strips of the lateral ventricle wall (including the ependymal cell layer and subventricular zone). […] The numbers of BrdU-positive cells are calculated per area (mm^2). The mean ± SEM were calculated. Differences between means were determined by one-way ANOVA.
# cells in the LVW [4] = experiment: Intracerebroventricular infusion of TO-901317, BrdU incorporation in the lateral ventricle wall; format: in vivo, male Wistar rats; settings: icv infusion 0.6 nmol/animal/day, 14 days, rat; calculated day concentration 0.2 μM
# Protocol: 10 week old male Wistar rats maintained on a 12hr light/dark cycle with food and water ad libidum, were infused in the right lateral ventricle with TO-901317 (Sigma-Aldrich), using an Alzet pump (2002), 14 days at a daily dose of 0.6 nmol/animal/day (infused at a rate of 0.5 μl/hr; 50 μM solution). Bromodeoxyuridine (BrdU) (50 mg/ml) was also included in the infusion vehicle (0.9% saline containing 1 mg/ml mouse serum albumin (Sigma)) to enable measurement of proliferation by quantitation of BrdU incorporation in the DNA. Animals were sacrificed at day 14, perfused with PBS and the brains removed and frozen at −70° C. prior to sectioning for immumohistochemical analysis.
# as §2, with “cryostat-microtome. The sections were thawed onto pretreated slides and fixed in 4% (wt/vol) paraformaldehyde/PBS for 10 min.” for “cryostat-microtome.”
# as §3
# [5] = Weight gain and food intake during oral administration; format: in vivo, C57BL/6J male mice; settings: chow with 0.025% or 0.0025% compound, mouse
# Protocol: as §1
# Group 2 received identical treatment except that the chow in this case contained 0.0025% T0901317. Group 3 and 4 received identical treatments as groups 1 and 2, respectively, with the exception that these animals received 5-bromodeoxyuridine injections on day 1 and 2 after the initiation of the experiment and were sacrificed on day 4. Group 5 served as control and received chow without any T0901317 but identical to groups 1-4 received two daily injections of 5-bromodeoxyuridine 100 mg/kg i.p. and was sacrificed two days later. The mean daily intake was 4.25±0.13 (S.E.M.) g chow, and the mean weight of the animals 24.8±0.11 (S.E.M.) g during the cause of the experiment resulting in an average dose of 43 mg/kg/day for groups 1 and 3 (“High”), and an average dose of 4.3 mg/kg/day for groups 2 and 4 (“Low”). […] No correlation between weight gain, food intake or BrdU incorporation could be detected. […]
# [6] = tested on: beta-amyloid induced apoptosis; settings: Alzheimer's disease; cited from earlier work
Structure (SMILES),PLA2 enzymatic activity (phospholipase A2 (PLA2)),PLA2 mRNA (phospholipase A2 (PLA2)),irritant dermatitis (irritant dermatitis),neuronal differentiation measured as neurite outgrowth [1],"intracellular ATP levels, and hence cell number (adult mouse NSC proliferation or survival in vitro) [2]",further results
C[C@H](CCCC(C)(C)O)[C@H]1CC[C@H]2[C@@H]3CC=C4C[C@@H](O)CC[C@]4(C)[C@H]3CC[C@]12C [25-hydroxycholesterol],increased enzymatic activity,accumulation of PLA2 mRNA,able to reduce irritant dermatitis,,,
"CCCCCCCCCCCCCCOc1ccc(C(=O)O)o1 [TOFA, 5-tetradecyloxy-2-furancarboxylic acid]",,,,induces neuronal differentiation,,
O=S(=O)(c1ccccc1)N(CC(F)(F)F)c1ccc(C(O)(C(F)(F)F)C(F)(F)F)cc1 [TO-901317],,,,,mediates adult mouse NSC proliferation or survival in vitro,"concentration-response relationship observed in vitro with cultured mouse NSC ([2]; Example 2, effective concentrations): 3 to 5 µM; incorporation of BrdU of cells in the LVW (cells in the LVW [3]): significantly decreased; also recorded: clearly effective; incorporation of BrdU in the LVW (cells in the LVW [4]): did not significantly change; also recorded: ineffective; weight gain or food intake [5]: No difference between groups"
"C[C@H](CC[C@@H]1OC1(C)C)[C@H]1CC[C@H]2[C@@H]3CC=C4C[C@@H](O)CC[C@]4(C)[C@H]3CC[C@]12C [5-Cholesten-24(s), 25-epoxy-3b-ol]",,,,,mediates adult mouse NSC proliferation or survival in vitro,
CC(C)CC[C@@H](O)[C@@H](C)[C@H]1CC[C@H]2[C@@H]3CC=C4C[C@@H](O)CC[C@]4(C)[C@H]3CC[C@]12C [22(R)-hydroxycholesterol],increased enzymatic activity,accumulation of PLA2 mRNA,able to reduce irritant dermatitis,induces neuronal differentiation,,"PLA2 promoter activity (phospholipase A2 (PLA2); transient transfection, in combination with 9-cis-retinoic acid): synergistically activated; beta-amyloid induced apoptosis [6]: prevention of beta-amyloid induced apoptosis"
O=C(O)Cc1cccc(OCCCN(Cc2cccc(C(F)(F)F)c2Cl)CC(c2ccccc2)c2ccccc2)c1 [GW3965],,,able to reduce irritant dermatitis,,,
